Measured values reported in US20230219965A1 (KSQ Therapeutics, Inc., priority 2020, published 2023).
Where two headings read alike, the source gives them in different places.

Key:
USP1/UAF1 enzyme = USP1/UAF1 enzyme (Homo sapiens, UniProt O94782); assay: USP1/UAF1 deubiquitination assay (ubiquitin-rhodamine 110 substrate); format: biochemical; conditions: read-out: USP1 IC50 (Ub-Rho)
How it was run: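 Cleavage of 150 nM ubiquitin-rhodamine 110 by 0.05 nM USP1/UAF1 was followed as fluorescence (Ex480/Em540, kinetic, 30 min) in Tris-HCl pH 7.8 buffer with EDTA, BSA, DTT and Tween-20. Compounds, top 10 μM, were preincubated with enzyme 10 min; % inhibition against no-enzyme and DMSO wells gave four-parameter IC50s.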

[1] = Liver microsomal metabolic stability, rat liver microsomes (RLM); conditions: 1 μM compound, 1 mg/mL microsomes, NADPH; for half-life at 1 μM: rat, liver microsomes, t1/2 (min) in RLM
[2] = test system: Ub-PCNA levels in the nucleus of ES2 cells (USP1 activity); assay: ES2 Ub-PCNA immunofluorescence (IF) assay; format: cell-based; conditions: read-out: USP1 IC50 (Ub-PCNA)
How it was run: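 AC50 derived from percent Ub-PCNA-positive nuclei, positivity set by a 95% cutoff from untreated-well intensities. Readout by imaging immunofluorescence (anti-Ub-PCNA, DAPI nuclear mask) after methanol fixation. Compound exposure: 3 h at 37° C, 0.3% DMSO final, on cells plated overnight.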

[3] = ADME solubility determination in PBS at pH 2.0 and pH 7.4; format: physicochemical; conditions: for solubility at 24 h: phosphate buffered saline, 25 °C, thermodynamic from solid
How it was run: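 Solubility was read by LC-MS/MS on centrifuged supernatants, calibrated to a known-concentration standard and corrected for dilution. Compound, dried down from 10 mM DMSO stock, was equilibrated 24 h at 25° C with shaking in PBS at pH 2.0 or pH 7.4.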

[4] = Liver microsomal metabolic stability, human liver microsomes (HLM); conditions: for half-life at 1 μM: human, liver microsomes
[5] = Homo sapiens, ES-2, ES2 cells, 3 hours, Ub-PCNA immunofluorescence
[6] = pH 2, aqueous buffer, PBS pH 2.0, 25° C., read-out: Solubility at pH 2.0
[7] = pH 7.4, aqueous buffer, PBS pH 7.4, 25° C., read-out: Solubility at pH 7.4

USP1/UAF1 enzyme, sequence (O94782 whole entry): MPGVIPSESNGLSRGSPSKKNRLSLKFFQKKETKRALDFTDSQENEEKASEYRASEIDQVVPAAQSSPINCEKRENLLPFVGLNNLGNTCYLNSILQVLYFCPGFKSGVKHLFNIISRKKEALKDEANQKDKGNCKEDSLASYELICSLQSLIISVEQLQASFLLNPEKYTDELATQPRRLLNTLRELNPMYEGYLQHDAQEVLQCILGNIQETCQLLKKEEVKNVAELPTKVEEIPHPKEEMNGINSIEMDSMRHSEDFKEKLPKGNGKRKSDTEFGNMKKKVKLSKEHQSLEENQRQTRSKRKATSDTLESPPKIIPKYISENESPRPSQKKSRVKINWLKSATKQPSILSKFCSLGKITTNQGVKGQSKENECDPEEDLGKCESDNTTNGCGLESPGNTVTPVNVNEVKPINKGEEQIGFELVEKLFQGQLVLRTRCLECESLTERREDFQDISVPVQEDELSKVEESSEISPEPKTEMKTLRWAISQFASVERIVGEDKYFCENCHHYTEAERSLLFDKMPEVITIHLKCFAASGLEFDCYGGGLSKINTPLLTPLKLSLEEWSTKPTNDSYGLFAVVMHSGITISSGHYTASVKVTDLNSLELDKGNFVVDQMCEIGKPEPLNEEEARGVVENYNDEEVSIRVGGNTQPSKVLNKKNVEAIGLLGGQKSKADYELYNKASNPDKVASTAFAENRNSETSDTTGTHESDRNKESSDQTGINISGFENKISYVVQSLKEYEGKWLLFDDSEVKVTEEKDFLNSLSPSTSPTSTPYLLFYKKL
USP1/UAF1 enzyme, sequence (Q8TAF3 whole entry partner): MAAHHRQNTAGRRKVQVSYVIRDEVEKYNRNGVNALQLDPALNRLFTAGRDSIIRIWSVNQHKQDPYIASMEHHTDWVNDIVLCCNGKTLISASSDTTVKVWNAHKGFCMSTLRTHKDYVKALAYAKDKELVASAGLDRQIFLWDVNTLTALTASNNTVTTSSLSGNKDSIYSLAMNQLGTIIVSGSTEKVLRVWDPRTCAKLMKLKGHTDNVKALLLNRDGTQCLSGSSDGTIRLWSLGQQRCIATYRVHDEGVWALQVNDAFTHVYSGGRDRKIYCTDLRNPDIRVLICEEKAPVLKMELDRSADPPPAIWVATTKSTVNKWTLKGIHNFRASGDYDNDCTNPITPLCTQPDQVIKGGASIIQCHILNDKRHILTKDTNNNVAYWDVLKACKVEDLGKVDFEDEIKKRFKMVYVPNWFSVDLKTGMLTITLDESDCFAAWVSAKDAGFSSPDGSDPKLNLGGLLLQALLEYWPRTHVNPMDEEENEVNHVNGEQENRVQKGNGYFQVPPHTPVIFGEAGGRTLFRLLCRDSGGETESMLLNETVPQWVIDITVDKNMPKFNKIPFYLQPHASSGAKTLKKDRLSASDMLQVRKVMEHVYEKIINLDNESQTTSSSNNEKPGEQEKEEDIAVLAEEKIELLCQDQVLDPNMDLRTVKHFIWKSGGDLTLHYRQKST

Row | IC50 (USP1/UAF1 enzyme) | half-life at 1 μM [1] | IC50 [2, 5] | solubility at 24 h [3, 6] | solubility at 24 h [3, 7] | half-life at 1 μM [4] | t1/2 (min) in RLM [1] | IC50 ([2]; ES2 cells, 3 hours, Ub-PCNA immunofluorescence) | Solubility at pH 2.0 (μM) ([3]; PBS pH 2.0, 25° C., 24 hours) | Solubility at pH 7.4 (μM) ([3]; PBS pH 7.4, 25° C., 24 hours) | t1/2 (min) in HLM ([4]; human liver microsomes, 1 μM compound, 1 mg/mL microsomes, NADPH) | SMILES | IC50 ([2]; Homo sapiens, ES-2, 3 h)
1 | < 100 nM | > 25 min | < 100 nM | < 10 µM | < 10 µM | > 25 min |  |  |  |  |  | CCn1cc(C(F)(F)F)nc1-c1ccc(OC2CCCn3nc(-c4c(Cl)cnn4C(C)C)cc32)cc1 (stereo not drawn) [Example 261, 2-(4-chloro-1-isopropyl-1H-pyrazol-5-yl)-4-(4-(1-ethyl-4-(trifluoromethyl)-1H-imidazol-2-yl)phenoxy)-4,5,6,7-tetrahydropyrazolo[1,5-α]pyridine] | 
2 | < 100 nM | > 25 min | 100 to 500 nM | < 10 µM | < 10 µM | > 25 min |  |  |  |  |  | CCn1cc(C(F)(F)F)nc1-c1ccc(OC2CCCn3nc(-c4c(Cl)cnn4C(C)C)cc32)cc1F (stereo not drawn) [Example 262] | 
3 | < 100 nM | < 25 min | 100 to 500 nM | < 10 µM | < 10 µM | < 25 min |  |  |  |  |  | CCn1cc(C(F)(F)F)nc1-c1ccc(CC2OCCn3nc(-c4c(Cl)cnn4C(C)C)cc32)cc1 (stereo not drawn) [Example 265, 2-(4-chloro-1-isopropyl-1H-pyrazol-5-yl)-4-(4-(1-ethyl-4-(trifluoromethyl)-1H-imidazol-2-yl)benzyl)-6,7-dihydro-4H-pyrazolo[5,1-c][1,4]oxazine] | 
4 | < 100 nM | > 25 min | 100 to 500 nM | < 10 µM | < 10 µM | > 25 min |  |  |  |  |  | CCn1cc(C(F)(F)F)nc1-c1ccc(NC2CCCn3nc(-c4c(C#N)cnn4C(C)C)cc32)cc1F (stereo not drawn) [Example 266, 5-(4-((4-(1-ethyl-4-(trifluoromethyl)-1H-imidazol-2-yl)-3-fluorophenyl)amino)-4,5,6,7-tetrahydropyrazolo[1,5-α]pyridin-2-yl)-1-isopropyl-1H-pyrazole-4-carbonitrile] | 
5 | < 100 nM |  |  |  |  |  | + (“+” indicates less than 25 minutes) | < 100 nM | + (“+” indicates less than 10 μM) | + (“+” indicates less than 10 μM) | + (“+” indicates less than 25 minutes) | CCn1cc(C(F)(F)F)nc1-c1ccc(CN2CC(O)Cn3nc(-c4c(Cl)cnn4C(C)C)cc32)cc1F (stereo not drawn) [Example 267, 2-(4-chloro-1-isopropyl-1H-pyrazol-5-yl)-4-(4-(1-ethyl-4-(trifluoromethyl)-1H-imidazol-2-yl)-3-fluorobenzyl)-4,5,6,7-tetrahydropyrazolo[1,5-α]pyrimidin-6-ol] | 
6 | < 100 nM | < 25 min | < 100 nM | < 10 µM | < 10 µM | < 25 min |  |  |  |  |  | CCn1cc(C(F)(F)F)nc1-c1ccc(COC2CCCn3nc(-c4c(Cl)cnn4C(C)C)cc32)cc1 (stereo not drawn) [Example 270, 2-(4-chloro-1-isopropyl-1H-pyrazol-5-yl)-4-((4-(1-ethyl-4-(trifluoromethyl)-1H-imidazol-2-yl)benzyl)oxy)-4,5,6,7-tetrahydropyrazolo[1,5-α]pyridine] | 
7 | < 100 nM | < 25 min | 100 to 500 nM | ≥ 10 µM | < 10 µM | < 25 min |  |  |  |  |  | CC(C)n1ncc(Cl)c1-c1cc2n(n1)CCC(=O)N2Cc1ccc(-c2ncccc2OC2CC2)c(Cl)c1 [Example 290] | 
8 | < 100 nM | < 25 min | 100 to 500 nM | < 10 µM | < 10 µM | < 25 min |  |  |  |  |  | CC(C)Oc1cccnc1-c1ccc(CN2C(=O)CCn3nc(-c4c(Cl)cnn4C(C)C)cc32)cc1 [Example 291] | 
9 | < 100 nM | < 25 min | < 100 nM | < 10 µM | < 10 µM | > 25 min |  |  |  |  |  | COc1ccc(C(F)(F)F)nc1-c1ccc(CN2C(=O)CCn3nc(-c4c(Cl)cnn4C(C)C)cc32)cc1Cl [Example 294] | 
10 | < 100 nM | < 25 min | 100 to 500 nM | ≥ 10 µM | < 10 µM | < 25 min |  |  |  |  |  | CC(C)n1ncc(Cl)c1-c1cc2n(n1)CCC(=O)N2Cc1ccc(-c2ncccc2N2CCOCC2)c(Cl)c1 [Example 296] | 
11 | < 100 nM | < 25 min | 100 to 500 nM | ≥ 10 µM | < 10 µM | < 25 min |  |  |  |  |  | CC(C)Oc1cccnc1-c1ccc(CN2C(=O)CCn3nc(-c4c(Cl)cnn4C(C)C)nc32)cc1 [Example 304] | 
12 | < 100 nM | < 25 min | 100 to 500 nM | ≥ 10 µM | < 10 µM | < 25 min |  |  |  |  |  | COc1cccnc1-c1ccc(CN2C(=O)CCn3nc(-c4c(Cl)cnn4C(C)C)cc32)cc1 [Example 305] | 
13 | < 100 nM | < 25 min | 100 to 500 nM | < 10 µM | < 10 µM | < 25 min |  |  |  |  |  | CCOc1cccnc1-c1ccc(CN2C(=O)CCn3nc(-c4c(Cl)cnn4C(C)C)cc32)cc1Cl [Example 307] | 
14 | < 100 nM | < 25 min | 100 to 500 nM | ≥ 10 µM | < 10 µM | < 25 min |  |  |  |  |  | COc1ccc(C)nc1-c1ccc(CN2C(=O)CCn3nc(-c4c(Cl)cnn4C(C)C)cc32)cc1Cl [Example 309] | 
15 | < 100 nM | < 25 min | < 100 nM | ≥ 10 µM | < 10 µM | < 25 min |  |  |  |  |  | CC(C)n1ncc(Cl)c1-c1cc2n(n1)CCC(=O)N2Cc1ccc(-c2ncccc2N(C)C)cc1 [Example 321] | 
16 | < 100 nM | < 25 min | < 100 nM | ≥ 10 µM | < 10 µM | < 25 min |  |  |  |  |  | CCn1cc(C(F)(F)F)nc1-c1ccc(CN2CC(C)(C)Cn3nc(-c4c(OC)ncnc4C4CC4)cc32)cc1F [Example 327, 2-(4-cyclopropyl-6-methoxypyrimidin-5-yl)-4-(4-(1-ethyl-4-(trifluoromethyl)-1H-imidazol-2-yl)-3-fluorobenzyl)-6,6-dimethyl-4,5,6,7-tetrahydropyrazolo[1,5-α]pyrimidine] | 
17 | < 100 nM | > 25 min | < 100 nM | ≥ 10 µM | ≥ 10 µM | > 25 min |  |  |  |  |  | CCn1cc(C(F)(F)F)nc1-c1ccc(Cn2c(=O)ccn3nc(-c4c(OC)ncnc4C4CC4)cc23)cc1 [Example 332, 2-(4-cyclopropyl-6-methoxypyrimidin-5-yl)-4-(4-(1-ethyl-4-(trifluoromethyl)-1H-imidazol-2-yl)benzyl)pyrazolo[1,5-α]pyrimidin-5(4H)-one] | 
18 | < 100 nM | > 25 min | < 100 nM | < 10 µM | < 10 µM | > 25 min |  |  |  |  |  | CCn1cc(C(F)(F)F)nc1-c1ccc([C@@H](C)n2c(=O)ccn3nc(-c4c(OC)ncnc4C4CC4)cc23)cc1F [Example 333, (R)-2-(4-cyclopropyl-6-methoxypyrimidin-5-yl)-4-(1-(4-(1-ethyl-4-(trifluoromethyl)-1H-imidazol-2-yl)-3-fluorophenyl)ethyl)pyrazolo[1,5-α]pyrimidin-5(4H)-one] | 

Row | SMILES | IC50 (USP1/UAF1 enzyme) | half-life at 1 μM [1] | IC50 [2, 5] | solubility at 24 h [3, 6] | solubility at 24 h [3, 7] | half-life at 1 μM [4] | t1/2 (min) in RLM [1] | IC50 ([2]; ES2 cells, 3 hours, Ub-PCNA immunofluorescence) | Solubility at pH 2.0 (μM) ([3]; PBS pH 2.0, 25° C., 24 hours) | Solubility at pH 7.4 (μM) ([3]; PBS pH 7.4, 25° C., 24 hours) | t1/2 (min) in HLM ([4]; human liver microsomes, 1 μM compound, 1 mg/mL microsomes, NADPH) | IC50 ([2]; Homo sapiens, ES-2, 3 h)
19 | CCn1cc(C(F)(F)F)nc1-c1ccc(CNC2CCCn3nc(-c4c(Cl)cnn4C(C)C)cc32)cc1 (stereo not drawn) [Example 330, 2-(4-chloro-1-isopropyl-1H-pyrazol-5-yl)-N-(4-(1-ethyl-4-(trifluoromethyl)-1H-imidazol-2-yl)benzyl)-4,5,6,7-tetrahydropyrazolo[1,5-α]pyridin-4-amine] | < 100 nM | < 25 min |  | ≥ 10 µM | < 10 µM | < 25 min |  |  |  |  |  | < 100 nM
20 | CCn1cc(C(F)(F)F)nc1-c1ccc(N(CCO)C2CCCn3nc(-c4c(Cl)cnn4C(C)C)cc32)cc1F (stereo not drawn) [Example 331, 2-((2-(4-chloro-1-isopropyl-1H-pyrazol-5-yl)-4,5,6,7-tetrahydropyrazolo[1,5-α]pyridin-4-yl)(4-(1-ethyl-4-(trifluoromethyl)-1H-imidazol-2-yl)-3-fluorophenyl)amino)-ethan-1-ol] | < 100 nM | < 25 min | < 100 nM | < 10 µM | < 10 µM | < 25 min |  |  |  |  |  | 
